In general, Kd refers to the constant that tells how readily two partners part at equilibrium.

Data on two compounds can be found in publication PMC5843628, “Phosphorylation of conserved phosphoinositide binding pocket regulates sorting nexin membrane targeting” (Nature Communications, 2018).

The target of this assay is full length human SNX3 (sorting nexin 3) (Homo sapiens, UniProt O60493). The assay can be described thus: NMR chemical shift perturbation titration, […]-labelled protein. In kind it is binding.
full length human SNX3 (sorting nexin 3), sequence (O60493 whole entry): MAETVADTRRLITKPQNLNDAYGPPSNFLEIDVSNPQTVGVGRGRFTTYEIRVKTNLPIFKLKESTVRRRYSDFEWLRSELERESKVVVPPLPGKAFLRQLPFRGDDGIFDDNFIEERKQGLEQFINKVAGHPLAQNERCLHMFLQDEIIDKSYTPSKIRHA

For `O=P(O)(O)O[C@@H]1[C@H](O)[C@H](OP(=O)(O)O)[C@@H](O)[C@H](O)[C@H]1O` [Ins(1,3)P2], the Kd is 170 ± 34.1 µM. The figure for `CCCC(=O)OC[C@H](COP(=O)(O)O[C@@H]1[C@H](O)[C@H](OP(=O)(O)O)[C@@H](O)[C@H](O)[C@H]1O)OC(=O)CCC` [c4-PI3P] is 159 ± 36.1 µM.
